What was measured:
Assay in all cases: relative viability (nuclei count vs DMSO), 5 days (fraction); higher = more cells survive
ABC-1 = test system: ABC-1
Method in brief: (§1)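 Lung cancer cell lines, seeded in 1536-well plates, were treated the following day by pin tool with a single drug or with five library-drug doses (not always all listed) in √10 steps on top of a fixed anchor-drug dose. Cells were fixed and nuclei stained in one step after 5 days, and nuclei were counted. Relative viability is the nuclei count for treated wells divided by that for vehicle wells, reported as medians of duplicate plates.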

CAL-12T = test system: CAL-12T
Method in brief: as §1

COR-L 105 = test system: COR-L 105
Method in brief: as §1

ChaGo-K-1 = test system: ChaGo-K-1
Method in brief: as §1

EMC-BAC-2 = test system: EMC-BAC-2
Method in brief: as §1

EPLC-272H = test system: EPLC-272H
Method in brief: as §1

HCC-15 = test system: HCC-15
Method in brief: as §1

HCC-78 = test system: HCC-78
Method in brief: as §1

HOP-62 = test system: HOP-62
Method in brief: as §1

LXF-289 = test system: LXF-289
Method in brief: as §1

NCI-H1666 = test system: NCI-H1666
Method in brief: as §1

NCI-H1755 = test system: NCI-H1755
Method in brief: as §1

NCI-H1915 = test system: NCI-H1915
Method in brief: as §1

NCI-H1975 = test system: NCI-H1975
Method in brief: as §1

NCI-H2023 = test system: NCI-H2023
Method in brief: as §1

NCI-H2085 = test system: NCI-H2085
Method in brief: as §1

NCI-H2126 = test system: NCI-H2126
Method in brief: as §1

NCI-H3122 = test system: NCI-H3122
Method in brief: as §1

NCI-H322M = test system: NCI-H322M
Method in brief: as §1

NCI-H358 = test system: NCI-H358
Method in brief: as §1

NCI-H441 = test system: NCI-H441
Method in brief: as §1

UMC-11 = test system: UMC-11
Method in brief: as §1

COc1cc2nccc(Oc3ccc(NC(=O)Nc4cc(C)on4)c(Cl)c3)c2cc1OC [Tivozanib] + N=C(N)NC(=N)NCCc1ccccc1 [Phenformin] (partner 250 µM)
relative viability (ABC-1; first compound 0.005 µM): 0.236 | relative viability (ABC-1; first compound 0.01581 µM): 0.246 | relative viability (ABC-1; first compound 0.05 µM): 0.268 | relative viability (ABC-1; first compound 0.1581 µM): 0.201 | relative viability (ABC-1; first compound 0.5 µM): 0.24 | relative viability (CAL-12T; first compound 0.005 µM): 0.538 | relative viability (CAL-12T; first compound 0.01581 µM): 0.554 | relative viability (CAL-12T; first compound 0.05 µM): 0.494 | relative viability (CAL-12T; first compound 0.1581 µM): 0.625 | relative viability (CAL-12T; first compound 0.5 µM): 0.558 | relative viability (COR-L 105; first compound 0.005 µM): 0.49 | relative viability (COR-L 105; first compound 0.01581 µM): 0.482 | relative viability (COR-L 105; first compound 0.05 µM): 0.558 | relative viability (COR-L 105; first compound 0.1581 µM): 0.501 | relative viability (COR-L 105; first compound 0.5 µM): 0.43 | relative viability (ChaGo-K-1; first compound 0.005 µM): 0.474 | relative viability (ChaGo-K-1; first compound 0.01581 µM): 0.488 | relative viability (ChaGo-K-1; first compound 0.05 µM): 0.492 | relative viability (ChaGo-K-1; first compound 0.1581 µM): 0.507 | relative viability (ChaGo-K-1; first compound 0.5 µM): 0.433 | relative viability (EMC-BAC-2; first compound 0.005 µM): 0.48 | relative viability (EMC-BAC-2; first compound 0.01581 µM): 0.519 | relative viability (EMC-BAC-2; first compound 0.05 µM): 0.51 | relative viability (EMC-BAC-2; first compound 0.1581 µM): 0.428 | relative viability (EMC-BAC-2; first compound 0.5 µM): 0.441 | relative viability (EPLC-272H; first compound 0.005 µM): 0.271 | relative viability (EPLC-272H; first compound 0.01581 µM): 0.355 | relative viability (EPLC-272H; first compound 0.05 µM): 0.359 | relative viability (EPLC-272H; first compound 0.1581 µM): 0.314 | relative viability (EPLC-272H; first compound 0.5 µM): 0.239 | relative viability (HCC-15; first compound 0.005 µM): 0.421 | relative viability (HCC-15; first compound 0.01581 µM): 0.476 | relative viability (HCC-15; first compound 0.05 µM): 0.5 | relative viability (HCC-15; first compound 0.1581 µM): 0.581 | relative viability (HCC-15; first compound 0.5 µM): 0.426 | relative viability (HCC-78; first compound 0.005 µM): 0.619 | relative viability (HCC-78; first compound 0.01581 µM): 0.658 | relative viability (HCC-78; first compound 0.05 µM): 0.85 | relative viability (HCC-78; first compound 0.1581 µM): 0.529 | relative viability (HCC-78; first compound 0.5 µM): 0.655 | relative viability (HOP-62; first compound 0.005 µM): 0.611 | relative viability (HOP-62; first compound 0.01581 µM): 0.626 | relative viability (HOP-62; first compound 0.05 µM): 0.66 | relative viability (HOP-62; first compound 0.1581 µM): 0.704 | relative viability (HOP-62; first compound 0.5 µM): 0.714 | relative viability (LXF-289; first compound 0.005 µM): 0.532 | relative viability (LXF-289; first compound 0.01581 µM): 0.506 | relative viability (LXF-289; first compound 0.05 µM): 0.514 | relative viability (LXF-289; first compound 0.1581 µM): 0.561 | relative viability (LXF-289; first compound 0.5 µM): 0.418 | relative viability (NCI-H1666; first compound 0.005 µM): 0.507 | relative viability (NCI-H1666; first compound 0.01581 µM): 0.553 | relative viability (NCI-H1666; first compound 0.05 µM): 0.579 | relative viability (NCI-H1666; first compound 0.1581 µM): 0.569 | relative viability (NCI-H1666; first compound 0.5 µM): 0.582 | relative viability (NCI-H1755; first compound 0.005 µM): 0.585 | relative viability (NCI-H1755; first compound 0.01581 µM): 0.605 | relative viability (NCI-H1755; first compound 0.05 µM): 0.631 | relative viability (NCI-H1755; first compound 0.1581 µM): 0.644 | relative viability (NCI-H1755; first compound 0.5 µM): 0.459 | relative viability (NCI-H1915; first compound 0.005 µM): 0.365 | relative viability (NCI-H1915; first compound 0.01581 µM): 0.388 | relative viability (NCI-H1915; first compound 0.05 µM): 0.317 | relative viability (NCI-H1915; first compound 0.1581 µM): 0.373 | relative viability (NCI-H1915; first compound 0.5 µM): 0.309 | relative viability (NCI-H1975; first compound 0.005 µM): 0.398 | relative viability (NCI-H1975; first compound 0.01581 µM): 0.429 | relative viability (NCI-H1975; first compound 0.05 µM): 0.397 | relative viability (NCI-H1975; first compound 0.1581 µM): 0.423 | relative viability (NCI-H1975; first compound 0.5 µM): 0.395 | relative viability (NCI-H2023; first compound 0.005 µM): 0.408 | relative viability (NCI-H2023; first compound 0.01581 µM): 0.421 | relative viability (NCI-H2023; first compound 0.05 µM): 0.426 | relative viability (NCI-H2023; first compound 0.1581 µM): 0.43 | relative viability (NCI-H2023; first compound 0.5 µM): 0.377 | relative viability (NCI-H2085; first compound 0.005 µM): 0.652 | relative viability (NCI-H2085; first compound 0.01581 µM): 0.723 | relative viability (NCI-H2085; first compound 0.05 µM): 0.711 | relative viability (NCI-H2085; first compound 0.1581 µM): 0.62 | relative viability (NCI-H2085; first compound 0.5 µM): 0.673 | relative viability (NCI-H2126; first compound 0.005 µM): 0.486 | relative viability (NCI-H2126; first compound 0.01581 µM): 0.546 | relative viability (NCI-H2126; first compound 0.05 µM): 0.553 | relative viability (NCI-H2126; first compound 0.1581 µM): 0.516 | relative viability (NCI-H2126; first compound 0.5 µM): 0.528 | relative viability (NCI-H3122; first compound 0.005 µM): 0.376 | relative viability (NCI-H3122; first compound 0.01581 µM): 0.419 | relative viability (NCI-H3122; first compound 0.05 µM): 0.383 | relative viability (NCI-H3122; first compound 0.1581 µM): 0.361 | relative viability (NCI-H3122; first compound 0.5 µM): 0.344 | relative viability (NCI-H322M; first compound 0.005 µM): 0.721 | relative viability (NCI-H322M; first compound 0.01581 µM): 0.82 | relative viability (NCI-H322M; first compound 0.05 µM): 0.776 | relative viability (NCI-H322M; first compound 0.1581 µM): 0.689 | relative viability (NCI-H322M; first compound 0.5 µM): 0.655 | relative viability (NCI-H358; first compound 0.005 µM): 0.306 | relative viability (NCI-H358; first compound 0.01581 µM): 0.265 | relative viability (NCI-H358; first compound 0.05 µM): 0.411 | relative viability (NCI-H358; first compound 0.1581 µM): 0.301 | relative viability (NCI-H358; first compound 0.5 µM): 0.447 | relative viability (NCI-H441; first compound 0.005 µM): 0.797 | relative viability (NCI-H441; first compound 0.01581 µM): 0.782 | relative viability (NCI-H441; first compound 0.05 µM): 0.823 | relative viability (NCI-H441; first compound 0.1581 µM): 0.881 | relative viability (NCI-H441; first compound 0.5 µM): 0.735 | relative viability (UMC-11; first compound 0.005 µM): 0.324 | relative viability (UMC-11; first compound 0.01581 µM): 0.332 | relative viability (UMC-11; first compound 0.05 µM): 0.329 | relative viability (UMC-11; first compound 0.5 µM): 0.25
